pIC50: −log10 of the molar value.
Target: T1, Prostaglandin E synthase (Homo sapiens, UniProt O14684)
T1 sequence (O14684 whole entry): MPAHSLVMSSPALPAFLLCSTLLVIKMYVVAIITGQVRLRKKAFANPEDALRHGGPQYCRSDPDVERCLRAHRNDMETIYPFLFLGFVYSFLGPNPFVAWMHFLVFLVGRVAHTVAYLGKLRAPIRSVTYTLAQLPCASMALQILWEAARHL
Assay: mPGES1 enzyme assay
Experimental: mPGES1 was diluted with assay buffer and added into plate at 49 μL/well supplemented with 1 μL of compound (the final concentration of each compound at seven gradient concentrations was 10000 nM, 1000 nM, 100 nM, 10 nM, 1 nM, 0.1 nM and 0.01 nM). […] Then, each well was added with 53.8 μL of 6 mg/mL SnCl2 to quench the reaction. The sample was diluted with dilute buffer at 1:400. 10 μl of diluted sample, 5 μL PGE2-d2 and 5 μL anti-PGE2 Cryptate were added to a black 384-well plate, and incubated at 4° C. overnight. HTRF was determined using Flexstation, and the IC50 of the compounds was obtained by data processing software.

pIC50: 7.87
Compound: COCCn1c(C2=CC=C(C(F)(F)F)CC2)cc2cc(NC(=O)c3cc(CNC(=O)C(C)(C)F)cnc3C(F)F)ccc21 [US10081629, Example 27]

Reference: BindingDB's records for patent US10081629 (Jiangsu Hengrui Medicine, 2018)
